From patent US20250179073A1, “TRICYCLIC HETEROCYCLE COMPOUNDS AS IAP ANTAGONISTS” (Ascentage Pharma (Suzhou) Co., Ltd., priority 2022, published 2025)

Key:
MDA-MB-231 cells = assay: Cell proliferation assay (CellTiter-Glo), MDA-MB-231; type: cell-based; conditions: 72 h treatment, Celltiter-Glo luminescence
Summary of the method: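 MDA-MB-231 (RPMI-1640/10% FBS) and EVSA-T (MEM/10% FBS) cells, 10000 cells/well, exposed 72 h to compound at […]. Viability read by CellTiter-Glo luminescence after 15 min at room temperature. IC50 from control-normalised curve fitting.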

EVSA-T cells = assay: Cell proliferation assay (CellTiter-Glo), EVSA-T; type: cell-based; conditions: 72 h treatment, Celltiter-Glo luminescence
Experimental: Example 238: Cell Proliferation Assay
MDA-MB-231 and EVSA-T cells (10000 cells/well) were plated onto 96-well plates (Corning, Cat #3917) in 95 μL of medium (RPMI-1640 containing 10% FBS and MEM containing 10% FBS, respectively). Compounds with various concentrations ([…]) were added to the wells. After treatment for 72 h, 30 μL of Celltiter-Glo reagent (Promega, Cat #G7573) was added and incubated at room temperature for 15 min, then the luminescent signal was determined using a microplate reader (Biotek, SynergyH1). The inhibitor dose-response curves were analyzed using normalized IC50 regression curve fitting with control based normalization.

SMILES: C[C@@H]1CN(CC(=O)N2CC(C)(C)c3c2cc(Cc2ccc(F)cc2)c2nn(CC(C)(C)O)c(=O)n32)[C@@H](CN2CCN(C3COC3)C[C@H]2C)CN1 [Compound 267, 4-(4-fluorobenzyl)-2-(2-hydroxy-2-methylpropyl)-8,8-dimethyl-6-(2-((2R,5R)-5-methyl-2-(((R)-2-methyl-4-(oxetan-3-yl)piperazin-1-yl)methyl)piperazin-1-yl)acetyl)-2,6,7,8-tetrahydro-1H-pyrrolo[2,3-e][1,2,4]triazolo[4,3-a]pyridin-1-one]
- IC50 (MDA-MB-231 cells; Homo sapiens, MDA-MB-231, 72 h): 34 nM
- IC50 (EVSA-T cells; Homo sapiens, EVSA-T, 72 h): 19.6 nM

SMILES: C[C@@H]1CN(CC(=O)N2CC(C)(C)c3c2cc(Cc2ccc(F)cc2)c2nn(Cc4cccnc4)c(=O)n32)[C@@H](CN2CCOC[C@H]2C)CN1 [Compound 245, 4-(4-fluorobenzyl)-8,8-dimethyl-6-(2-((2R,5R)-5-methyl-2-(((R)-3-methylmorpholino)methyl)piperazin-1-yl)acetyl)-2-(pyridin-3-ylmethyl)-2,6,7,8-tetrahydro-1H-pyrrolo[2,3-e][1,2,4]triazolo[4,3-a]pyridin-1-one]
- IC50 (MDA-MB-231 cells; Homo sapiens, MDA-MB-231, 72 h): 5 nM
- IC50 (EVSA-T cells; Homo sapiens, EVSA-T, 72 h): 6.2 nM

SMILES: C[C@@H]1CN(CC(=O)N2CC(C)(C)c3c2cc(Cc2ccc(F)cc2)c2nn(C4CCC4O)c(=O)n32)[C@@H](CN2CCOC[C@H]2C)CN1 (stereo partly drawn) [Compound 273B, 4-(4-fluorobenzyl)-2-(2-hydroxycyclobutyl)-8,8-dimethyl-6-(2-((2R,5R)-5-methyl-2-(((R)-3-methylmorpholino)methyl)piperazin-1-yl)acetyl)-2,6,7,8-tetrahydro-1H-pyrrolo[2,3-e][1,2,4]triazolo[4,3-a]pyridin-1-one]
- IC50 (MDA-MB-231 cells): 14 nM
- IC50 (EVSA-T cells): 1.7 nM

SMILES: C[C@@H]1CN(CC(=O)N2CC(C)(C)c3c2cc(Cc2ccc(F)cc2)c2nc(C4CCOC4)nn32)[C@@H](CN2CCOC[C@H]2C)CN1 (stereo partly drawn) [Compound 163, 1-(4-(4-fluorobenzyl)-8,8-dimethyl-2-(tetrahydrofuran-3-yl)-7,8-dihydro-6H-pyrrolo[2,3-e][1,2,4]triazolo[1,5-a]pyridin-6-yl)-2-((2R,5R)-5-methyl-2-(((R)-3-methylmorpholino)methyl)piperazin-1-yl)ethan-1-one]
- IC50 (MDA-MB-231 cells; Homo sapiens, MDA-MB-231, 72 h): 28 nM
- IC50 (EVSA-T cells; Homo sapiens, EVSA-T, 72 h): 2 nM

SMILES: CC(C)NC(=O)c1nc2c(Cc3ccc(F)cc3)cc3c(n2n1)C(C)(C)CN3C(=O)CN1C[C@@H](C)NC[C@@H]1CN1CCOC[C@H]1C [Compound 256, 4-(4-fluorobenzyl)-N-isopropyl-8,8-dimethyl-6-(2-((2R,5R)-5-methyl-2-(((R)-3-methylmorpholino)methyl)piperazin-1-yl)acetyl)-7,8-dihydro-6H-pyrrolo[2,3-e][1,2,4]triazolo[1,5-a]pyridine-2-carboxamide]
- IC50 (MDA-MB-231 cells; Homo sapiens, MDA-MB-231, 72 h): 70 nM
- IC50 (EVSA-T cells; Homo sapiens, EVSA-T, 72 h): 8.9 nM

SMILES: CCNC(=O)c1nc2c(Cc3ccc(F)cc3)cc3c(n2n1)C(C)(C)CN3C(=O)CN1C[C@@H](C)NC[C@@H]1CN1CCOC[C@H]1C [Compound 259, N-ethyl-4-(4-fluorobenzyl)-8,8-dimethyl-6-(2-((2R,5R)-5-methyl-2-(((R)-3-methylmorpholino)methyl)piperazin-1-yl)acetyl)-7,8-dihydro-6H-pyrrolo[2,3-e][1,2,4]triazolo[1,5-a]pyridine-2-carboxamide]
- IC50 (MDA-MB-231 cells; Homo sapiens, MDA-MB-231, 72 h): 87 nM
- IC50 (EVSA-T cells; Homo sapiens, EVSA-T, 72 h): 15.8 nM

SMILES: C[C@@H]1CN(CC(=O)N2CC(C)(C)c3c2cc(Cc2ccc(F)cc2)c2ncnn32)[C@@H](CN2CCN(C3COC3)C[C@H]2C)CN1 [Compound 203, 1-(4-(4-fluorobenzyl)-8,8-dimethyl-7,8-dihydro-6H-pyrrolo[2,3-e][1,2,4]triazolo[1,5-a]pyridin-6-yl)-2-((2R,5R)-5-methyl-2-(((R)-2-methyl-4-(oxetan-3-yl)piperazin-1-yl)methyl)piperazin-1-yl)ethan-1-one]
- IC50 (MDA-MB-231 cells; Homo sapiens, MDA-MB-231, 72 h): 10 nM
- IC50 (EVSA-T cells; Homo sapiens, EVSA-T, 72 h): 3 nM

SMILES: C[C@@H]1CN(CC(=O)N2CC(C)(C)c3c2cc(Cc2ccc(F)cc2)c2ncnn32)[C@@H](CN2Cc3cc(F)ccc3C2=O)CN1 [Compound 100, 5-fluoro-2-(((2R,5R)-1-(2-(4-(4-fluorobenzyl)-8,8-dimethyl-7,8-dihydro-6H-pyrrolo[2,3-e][1,2,4]triazolo[1,5-a]pyridin-6-yl)-2-oxoethyl)-5-methylpiperazin-2-yl)methyl)isoindolin-1-one]
- IC50 (MDA-MB-231 cells; Homo sapiens, MDA-MB-231, 72 h): 21 nM
- IC50 (EVSA-T cells; Homo sapiens, EVSA-T, 72 h): 4 nM

SMILES: C[C@@H]1CN(CC(=O)N2CC(C)(C)c3c2cc(Cc2ccc(F)cc2)c2nc(C(F)(F)F)cn32)[C@@H](CN2CCN(CC(F)(F)F)C[C@H]2C)CN1 [Compound 179, 1-(4-(4-fluorobenzyl)-8,8-dimethyl-2-(trifluoromethyl)-7,8-dihydro-6H-imidazo[1,2-a]pyrrolo[2,3-e]pyridin-6-yl)-2-((2R,5R)-5-methyl-2-(((R)-2-methyl-4-(2,2,2-trifluoroethyl)piperazin-1-yl)methyl)piperazin-1-yl)ethan-1-one]
- IC50 (MDA-MB-231 cells; Homo sapiens, MDA-MB-231, 72 h): 180 nM
- IC50 (EVSA-T cells; Homo sapiens, EVSA-T, 72 h): 15 nM

SMILES: C[C@@H]1CN(CC(=O)N2CC(C)(C)c3c2cc(Cc2ccc(F)cc2)c2ncnn32)[C@@H](CN2CCOC3CC32)CN1 (stereo partly drawn) [Compound 202, 2-((2S,5R)-2-((2-oxa-5-azabicyclo[4.1.0]heptan-5-yl)methy 1)-5-methylpiperazin-1-yl)-1-(4-(4-fluorobenzyl)-8,8-dimethyl-7,8-dihydro-6H-pyrrolo[2,3-e][1,2,4]triazolo[1,5-a]pyridin-6-yl)ethan-1-one]
- IC50 (MDA-MB-231 cells; Homo sapiens, MDA-MB-231, 72 h): 34 nM
- IC50 (EVSA-T cells; Homo sapiens, EVSA-T, 72 h): 17 nM

SMILES: C[C@@H]1CN(CC(=O)N2CC(C)(C)c3c2cc(Cc2ccc(F)cc2)c2ncnn32)[C@@H](CN2Cc3c(F)cccc3C2=O)CN1 [Compound 99, 4-fluoro-2-(((2R,5R)-1-(2-(4-(4-fluorobenzyl)-8,8-dimethyl-7,8-dihydro-6H-pyrrolo[2,3-e][1,2,4]triazolo[1,5-a]pyridin-6-yl)-2-oxoethyl)-5-methylpiperazin-2-yl)methyl)isoindolin-1-one]
- IC50 (MDA-MB-231 cells; Homo sapiens, MDA-MB-231, 72 h): 12 nM
- IC50 (EVSA-T cells; Homo sapiens, EVSA-T, 72 h): 5 nM

SMILES: C[C@@H]1CN(CC(=O)N2CC(C)(C)c3c2cc(Cc2ccc(F)cc2)c2nc(N4CCOCC4=O)nn32)[C@@H](CN2CCOC[C@H]2C)CN1 [Compound 208, 4-(4-(4-fluorobenzyl)-8,8-dimethyl-6-(2-((2R,5R)-5-methyl-2-(((R)-3-methylmorpholino)methyl)piperazin-1-yl)acetyl)-7,8-dihydro-6H-pyrrolo[2,3-e][1,2,4]triazolo[1,5-a]pyridin-2-yl)morpholin-3-one]
- IC50 (MDA-MB-231 cells; Homo sapiens, MDA-MB-231, 72 h): 210 nM

SMILES: CCc1nnc2c(Cc3ccc(F)cc3)cc3c(n12)C(C)(C)CN3C(=O)CN1C[C@@H](C)NC[C@@H]1CN1CCOC[C@H]1C [Compound 172, 1-(1-ethyl-4-(4-fluorobenzyl)-8,8-dimethyl-7,8-dihydro-6H-pyrrolo[2,3-e][1,2,4]triazolo[4,3-a]pyridin-6-yl)-2-((2R,5R)-5-methyl-2-(((R)-3-methylmorpholino)methyl)piperazin-1-yl)ethan-1-one]
- IC50 (MDA-MB-231 cells; Homo sapiens, MDA-MB-231, 72 h): 610 nM

SMILES: Cc1nccn1C[C@H]1CN[C@H](C)CN1CC(=O)N1CC(C)(C)c2c1cc(Cc1ccc(F)cc1)c1ncnn21 [Compound 91, 1-(4-(4-fluorobenzyl)-8,8-dimethyl-7,8-dihydro-6H-pyrrolo[2,3-e][1,2,4]triazolo[1,5-a]pyridin-6-yl)-2-((2R,5R)-5-methyl-2-((2-methyl-1H-imidazol-1-yl)methyl)piperazin-1-yl)ethan-1-one]
- IC50 (MDA-MB-231 cells; Homo sapiens, MDA-MB-231, 72 h): 80 nM

SMILES: CC(=O)N1CCN(C[C@H]2CN[C@H](C)CN2CC(=O)N2CC(C)(C)c3c2cc(Cc2ccc(F)cc2)c2nn(CC(C)(C)O)c(=O)n32)[C@H](C)C1 [Compound 282, 6-(2-((2R,5R)-2-(((R)-4-acetyl-2-methylpiperazin-1-yl)methyl)-5-methylpiperazin-1-yl)acetyl)-4-(4-fluorobenzyl)-2-(2-hydroxy-2-methylpropyl)-8,8-dimethyl-2,6,7,8-tetrahydro-1H-pyrrolo[2,3-e][1,2,4]triazolo[4,3-a]pyridin-1-one]
- IC50 (MDA-MB-231 cells; Homo sapiens, MDA-MB-231, 72 h): 660 nM

SMILES: C[C@@H]1CN(CC(=O)N2CC3(CCOCC3)c3c2cc(Cc2ccc(F)cc2)c2nc(C(F)(F)F)cn32)[C@@H](CN2CCOC[C@H]2C)CN1 [Compound 183, 1-(4-(4-fluorobenzyl)-2-(trifluoromethyl)-2′,3′,5′,6′-tetrahydrospiro[imidazo[1,2-a]pyrrolo[2,3-e]pyridine-8,4′-pyran]-6(7H)-yl)-2-((2R,5R)-5-methyl-2-(((R)-3-methylmorpholino)methyl)piperazin-1-yl)ethan-1-one]
- IC50 (MDA-MB-231 cells; Homo sapiens, MDA-MB-231, 72 h): 810 nM

SMILES: C[C@@H]1CN(CC(=O)N2CC(C)(C)c3c2cc(Cc2c(F)cc(F)cc2F)c2nncn32)[C@@H](CN2CCOC[C@H]2C)CN1 [Compound 164, 1-(8,8-dimethyl-4-(2,4,6-trifluorobenzyl)-7,8-dihydro-6H-pyrrolo[2,3-e][1,2,4]triazolo[4,3-a]pyridin-6-yl)-2-((2R,5R)-5-methyl-2-(((R)-3-methylmorpholino)methyl)piperazin-1-yl)ethan-1-one]
- IC50 (MDA-MB-231 cells; Homo sapiens, MDA-MB-231, 72 h): 430 nM

SMILES: C[C@@H]1CN(CC(=O)N2CC(C)(C)c3c2cc(Cc2ccc(F)cc2)n2c(C(F)(F)F)nnc32)[C@@H](CN2CCOC[C@H]2C)CN1 [Example 22, 1-(5-(4-fluorobenzyl)-9,9-dimethyl-3-(trifluoromethyl)-8,9-dihydro-7H-pyrrolo[3,2-c][1,2,4]triazolo[4,3-a]pyridin-7-yl)-2-((2R,5R)-5-methyl-2-(((R)-3-methylmorpholino)methyl)piperazin-1-yl)ethan-1-one]
- IC50 (MDA-MB-231 cells; Homo sapiens, MDA-MB-231, 72 h): 3710 nM
